Literature values as cited in patent publication US20120058151A1, “NANOPARTICULATE COMPOSITIONS OF POORLY SOLUBLE COMPOUNDS” (CAPSULUTION PHARMA AG, priority 2008, published 2012).

solubility in water: practically insoluble in water
Structure (SMILES): CCOc1nc2cccc(C(=O)OC(C)OC(=O)OC3CCCCC3)c2n1Cc1ccc(-c2ccccc2-c2nnn[nH]2)cc1 (stereo not shown) [candesartan cilexetil]
